Results: ChEMBL document CHEMBL1201862, “PubChem BioAssay data set” (2004)
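Method: 48-hour compound exposure of cells in 96-well plates, five concentrations, linear interpolation of endpoints. The concentration for 50% growth inhibition is given as GI50.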 Active and inactive are the calls of the source. Rule as the data show it: active = GI50 up to about 1.1 µM and inactive = higher.

Assays:
Assay in all cases: NCI anticancer screen, dose series, 48 h
786-0 = tested on: 786-0
A498 = tested on: A498
A549 = tested on: A549
ACHN = tested on: ACHN
BT-549 = tested on: BT-549
CAKI-1 = tested on: CAKI-1
CCRF-CEM = tested on: CCRF-CEM
COLO 205 = tested on: COLO 205
DU-145 = tested on: DU-145
EKVX = tested on: EKVX
HCC 2998 = tested on: HCC 2998
HCT-116 = tested on: HCT-116
HCT-15 = tested on: HCT-15
HL-60 = tested on: HL-60
HOP-62 = tested on: HOP-62
HOP-92 = tested on: HOP-92
HT-29 = tested on: HT-29
Hs-578T = tested on: Hs-578T
IGROV-1 = tested on: IGROV-1
K562 = tested on: K562
KM12 = tested on: KM12
LOX IMVI = tested on: LOX IMVI
M14 = tested on: M14
MCF7 = tested on: MCF7
MDA-MB-231 = tested on: MDA-MB-231
MDA-MB-435 = tested on: MDA-MB-435
MDA-N = tested on: MDA-N
MOLT-4 = tested on: MOLT-4
NCI-H226 = tested on: NCI-H226
NCI-H23 = tested on: NCI-H23
NCI-H460 = tested on: NCI-H460
NCI-H522 = tested on: NCI-H522
NCI/ADR-RES = tested on: NCI/ADR-RES
OVCAR-3 = tested on: OVCAR-3
OVCAR-4 = tested on: OVCAR-4
OVCAR-5 = tested on: OVCAR-5
OVCAR-8 = tested on: OVCAR-8
PC-3 = tested on: PC-3
RPMI-8226 = tested on: RPMI-8226
RXF 393 = tested on: RXF 393
SF-268 = tested on: SF-268
SF-295 = tested on: SF-295
SF-539 = tested on: SF-539
SK-MEL-28 = tested on: SK-MEL-28
SK-MEL-2 = tested on: SK-MEL-2
SK-MEL-5 = tested on: SK-MEL-5
SK-OV-3 = tested on: SK-OV-3
SN12C = tested on: SN12C
SNB-19 = tested on: SNB-19
SNB-75 = tested on: SNB-75
SR = tested on: SR
SW-620 = tested on: SW-620
T47D = tested on: T47D
TK-10 = tested on: TK-10
U-251 = tested on: U-251
UACC-257 = tested on: UACC-257
UACC-62 = tested on: UACC-62
UO-31 = tested on: UO-31
Malme-3M = tested on: Malme-3M

## O=[N+]([O-])C1=Cc2c(O)ccc(O)c2C2OC=CC12 (stereo not drawn)
786-0
  GI50: 17.9 µM (inactive)
A498
  GI50: 15.7 µM (inactive)
A549
  GI50: 21 µM (inactive)
ACHN
  GI50: 14.8 µM (inactive)
BT-549
  GI50: 14.6 µM (inactive)
CAKI-1
  GI50: 13.1 µM (inactive)
CCRF-CEM
  GI50: 8.89 µM (inactive)
COLO 205
  GI50: 27 µM (inactive)
DU-145
  GI50: 26.4 µM (inactive)
EKVX
  GI50: 19.5 µM (inactive)
HCC 2998
  GI50: 27.4 µM (inactive)
HCT-116
  GI50: 15.9 µM (inactive)
HCT-15
  GI50: 18.5 µM
HL-60
  GI50: 8.59 µM (inactive)
HOP-62
  GI50: 18.3 µM (inactive)
HOP-92
  GI50: 22.3 µM (inactive)
HT-29
  GI50: 19.6 µM (inactive)
Hs-578T
  GI50: 29.2 µM (inactive)
IGROV-1
  GI50: 19.4 µM (inactive)
K562
  GI50: 9.44 µM (inactive)
KM12
  GI50: 16.4 µM (inactive)
LOX IMVI
  GI50: 15.7 µM (inactive)
M14
  GI50: 18 µM (inactive)
MCF7
  GI50: 13.6 µM (inactive)
MDA-MB-231
  GI50: 18.5 µM (inactive)
MDA-MB-435
  GI50: 2.4 µM (inactive)
MDA-N
  GI50: 5.97 µM (inactive)
MOLT-4
  GI50: 3.6 µM (inactive)
NCI-H226
  GI50: 30.7 µM (inactive)
NCI-H23
  GI50: 15.5 µM (inactive)
NCI-H460
  GI50: 19.7 µM (inactive)
NCI-H522
  GI50: 3.83 µM (inactive)
NCI/ADR-RES
  GI50: 19.2 µM (inactive)
OVCAR-3
  GI50: 7.94 µM (inactive)
OVCAR-4
  GI50: 16.4 µM (inactive)
OVCAR-5
  GI50: 23.5 µM (inactive)
OVCAR-8
  GI50: 21.4 µM (inactive)
PC-3
  GI50: 14.7 µM (inactive)
RPMI-8226
  GI50: 34.1 µM (inactive)
RXF 393
  GI50: 15.2 µM (inactive)
SF-268
  GI50: 19.8 µM (inactive)
SF-295
  GI50: 16.3 µM (inactive)
SF-539
  GI50: 22.2 µM (inactive)
SK-MEL-28
  GI50: 44.8 µM (inactive)
SK-MEL-2
  GI50: 18.7 µM (inactive)
SK-MEL-5
  GI50: 12.4 µM (inactive)
SK-OV-3
  GI50: > 60.4 µM (inactive)
SN12C
  GI50: 18.2 µM (inactive)
SNB-19
  GI50: 23.9 µM (inactive)
SNB-75
  GI50: 21.6 µM (inactive)
SR
  GI50: 23 µM (inactive)
SW-620
  GI50: 30 µM (inactive)
T47D
  GI50: 17.4 µM (inactive)
TK-10
  GI50: 16.6 µM (inactive)
U-251
  GI50: 16.1 µM (inactive)
UACC-257
  GI50: 15 µM (inactive)
UACC-62
  GI50: 6.81 µM (inactive)
UO-31
  GI50: 14.6 µM (inactive)

## COC(=O)C1(Cc2ccc3c(c2)CCC3)Cc2ccc3c(c2C1)CCC3 (stereo not drawn)
786-0
  GI50: 24.5 µM (inactive)
A498
  GI50: 22.3 µM (inactive)
A549
  GI50: 27.4 µM (inactive)
ACHN
  GI50: 24.1 µM (inactive)
BT-549
  GI50: 21.6 µM (inactive)
CAKI-1
  GI50: 21.6 µM (inactive)
CCRF-CEM
  GI50: 70.6 µM (inactive)
COLO 205
  GI50: 19 µM (inactive)
DU-145
  GI50: 24.8 µM (inactive)
EKVX
  GI50: 31.3 µM (inactive)
HCC 2998
  GI50: 34.5 µM (inactive)
HCT-116
  GI50: 18.1 µM (inactive)
HCT-15
  GI50: 25 µM
HL-60
  GI50: 23.4 µM (inactive)
HOP-62
  GI50: 30.1 µM (inactive)
HOP-92
  GI50: 18.7 µM (inactive)
HT-29
  GI50: 14.9 µM (inactive)
Hs-578T
  GI50: 17.4 µM (inactive)
IGROV-1
  GI50: 21.1 µM (inactive)
K562
  GI50: 85.5 µM (inactive)
KM12
  GI50: 17.7 µM (inactive)
LOX IMVI
  GI50: 16.8 µM (inactive)
MCF7
  GI50: 13.2 µM (inactive)
MDA-MB-231
  GI50: 15.6 µM (inactive)
MDA-MB-435
  GI50: 12.7 µM (inactive)
MDA-N
  GI50: 13.2 µM (inactive)
MOLT-4
  GI50: 43.3 µM (inactive)
Malme-3M
  GI50: 16.5 µM (inactive)
NCI-H226
  GI50: 21.1 µM (inactive)
NCI-H23
  GI50: 1.48 µM (inactive)
NCI-H460
  GI50: 24.8 µM (inactive)
NCI-H522
  GI50: 18.4 µM (inactive)
NCI/ADR-RES
  GI50: 20.6 µM (inactive)
OVCAR-3
  GI50: 20.3 µM (inactive)
OVCAR-4
  GI50: 17.2 µM (inactive)
OVCAR-8
  GI50: 32.1 µM (inactive)
PC-3
  GI50: 16.9 µM (inactive)
RPMI-8226
  GI50: 19.4 µM (inactive)
RXF 393
  GI50: 24 µM (inactive)
SF-268
  GI50: 44.4 µM (inactive)
SF-295
  GI50: 20.7 µM (inactive)
SF-539
  GI50: 37.9 µM (inactive)
SK-MEL-28
  GI50: 23.9 µM (inactive)
SK-MEL-5
  GI50: 16.6 µM (inactive)
SK-OV-3
  GI50: 52.8 µM (inactive)
SN12C
  GI50: 17.5 µM (inactive)
SNB-75
  GI50: > 100 µM (inactive)
SR
  GI50: > 10 µM (inactive)
SW-620
  GI50: 25.2 µM (inactive)
T47D
  GI50: 1.47 µM (inactive)
TK-10
  GI50: 49.7 µM (inactive)
U-251
  GI50: 17.3 µM (inactive)
UACC-257
  GI50: 5.61 µM (inactive)
UACC-62
  GI50: 32 µM (inactive)
UO-31
  GI50: 18.7 µM (inactive)
